Laboratory results from patent US20020115594A1, “Peptide antagonists at glutamate and NMDA receptors” (priority 1993, published 2002).
Blank lines part the entries; values can stand above or below the molecule they belong to. Ends that are not written are not given here.

Assays:
[1] = tested on: GnRH secretion by hypothalamic explants; assay: In vitro GnRH secretion by hypothalamic explants induced by veratridine (static incubation, GnRH radioimmunoassay); assay type: cell-based, rat
Description: (§1) The hypothalamic explants of male Wistar rats were studied individually using a static incubation system described earlier (1-3, 9). The total incubation volume of each chamber (0.5 ml) was sampled and renewed every 7.5 min. Using these fractions, the radioimmunoassay of GnRH was performed as described in detail previously (1, 2). The secretion of GnRH was studied either in the absence of any secretagogue or during the 7.5-min exposure to 5.10^−5 M of veratridine, a depolarizing agent opening the Na^+ channel, or 5.10^−2 M of kainate or N-methyl-D, L-aspartate (NMA) which are agonists of distinct subtypes of glutamate receptors. All these products were bought from Sigma, St Louis, Mo. At 25 and 50 days, veratridine was used repeatedly at 37.5-min intervals. At 15 days, veratridine was used at 52.5-min intervals, i.e. beyond the period of refractoriness caused by the inhibitory autofeedback of GnRH(11). The secretory response of GnRH was calculated as the difference between the concentration measured immediately before and during exposure to the secretagogue.
(§2) We studied the effects of the in-vitro exposure to increasing concentrations of recombinant hIGF-I (Kabi-Pharmacia, Stockholm, Sweden) or its two subproducts, (1-3)IGF-I (Peninsula, Merseyside, England) and (4-70)IGF-I (Gropep, Adelaide, Australia). We also studied the effects of other peptides. The GnRH fragments and analogs included (1-5) GnRH (UCB, Brussels, Belgium), (2-10)GnRH (Sigma, St Louis, Mo., USA) and (1-9)GnRHa (D-TRP^6-PRO^9-N-Ethylamide GnRH) a GnRH agonist kindly provided by Dr J Rivier (The Salk Institute, California, USA). The bovine Proinsulin and its subproducts included the C-peptide of insulin and insulin itself (Novo-Nordisk, Copenhagen, Denmark). Finally, the GRF-related peptides included (1-43) rat GRP (Bachem, Bubendorf, Switzerland), (1-37) human GRF (Peninsula, Merseyside, England) and (1-29)human GRF (Kabi Pharmacia, Stockholm, Sweden). AP-5 (DL-2-amino-5-phosphonovaleric acid, Sigma), a selective antagonist at NMDA receptors and DNQX (6,7-dinitro-quinoxaline-2,3-dione, Tocris Neuramin, Buckhurst Hill, United Kingdom) a selective antagonist at kainate receptors, were also used. The different peptides or antagonists were used for 15 min, i.e. the 7.5-min fraction before and during exposure to veratridine. We also studied the effects of a single s.c. injection of IGF-I or its subproducts in 15 or 50 day-old rats. Then, the animals were sacrificed and the hypothalamic explants studied 25 min after the injection, this interval being required to obtain plasma concentrations of IGF-I sufficient to affect protein metabolism (A. Skottner, personal communication). At that time, the serum was collected for the assay of IGF-I using a method described elsewhere (15) and testosterone was measured as well using a standard RIA (Sorin Biomedica). The concentration of the studied substances resulting in 50% inhibition of the GnRH secretory response (IC50) was calculated as described earlier (3, 9) and the data were compared by covariance analysis. The occurrence of significant GnRH secretory pulses was determined using the pulsar program (2, 3).
FIG. 1. In vitro effects of IGF-I-related peptides on GnRH secretion by hypothalamic explants at 15, 25 and 50 days. GnRH secretory response to depolarizing episodes (veratridine 50 μM for 7.5 min) was studied repeatedly at intervals of 52.5 min at 15 days or 37.5 min at 25 and 50 days. Such study was performed in control conditions or in the presence of increasing concentrations of IGF-I and subproducts, (4-70)IGF-I and (1-3)IGF-I, as well as AP-5, a competitive antagonist at NMDA receptors. Each experiment was preceded and followed by a veratridine challenge in control conditions.

[2] = tested on: glutamate receptors; assay: Displacement of tritiated glutamate from hypothalamic membrane preparations; assay type: binding; settings: FIG. 9
Source text: Hypothalmic membrane preparations are used to study the displacement of tritiated glutamate binding in the presence of different compounds. Glutamate is able to displace the binding of the tracer at relatively low 10^−6 to 10^−8 concentrations. […] This is because the affinity of tritiated glutamate for the NMDA receptors is less than for the other subtypes of glutamate receptors.

[3] = tested on: GnRH secretion by hypothalamic explants; assay: In vitro GnRH secretion by hypothalamic explants induced by veratridine (static incubation, GnRH radioimmunoassay); assay type: cell-based, rat; remark: listed apart in the source
[4] = tested on: kainate receptors; assay: In vitro GnRH secretion by hypothalamic explants induced by kainate; assay type: cell-based, rat; settings: 10^−6 M; explants of 50-day-old male rats; FIG. 8
Description: as §1, with “At 25 and 50 days, veratridine was used repeatedly at 37.5-min intervals. At 15 days, veratridine was used at 52.5-min intervals, i.e. beyond the period of refractoriness caused by the inhibitory autofeedback of GnRH(11).” left out
(§3) We studied the effects of the in-vitro exposure to increasing concentrations of recombinant hIGF-I (Kabi-Pharmacia, Stockholm, Sweden) or its two subproducts, (1-3)IGF-I (Peninsula, Merseyside, England) and (4-70)IGF-I (Gropep, Adelaide, Australia). […] At that time, the serum was collected for the assay of IGF-I using a method described elsewhere (15) and testosterone was measured as well using a standard RIA (Sorin Biomedica). […] The occurrence of significant GnRH secretory pulses was determined using the pulsar program (2, 3). […]

[5] = tested on: GnRH secretion by hypothalamic explants; assay: Spontaneous pulsatile secretion of GnRH from hypothalamic explants after s.c. injection; assay type: in vivo, rat; settings: s.c. injection of 0.1 mg/kg; 50-day-old rats; data not shown
Source text: as §2, with “The different peptides or antagonists were used for 15 min, i.e. the 7.5-min fraction before and during exposure to veratridine. We also studied the effects of a single s.c. injection of IGF-I or its subproducts in 15 or 50 day-old rats. Then, the animals were sacrificed and the hypothalamic explants studied 25 min after the injection, this interval being required to obtain plasma concentrations of IGF-I sufficient to affect protein metabolism (A. Skottner, personal communication).” left out, “The concentration of the studied substances resulting in 50% inhibition of the GnRH secretory response (IC50) was calculated as described earlier (3, 9) and the data were compared by covariance analysis.” left out, “3). […]” for “3).”

[6] = tested on: GnRH secretion by hypothalamic explants; assay: Ex vivo veratridine-induced GnRH secretion by hypothalamic explants after in-vivo s.c. injection; set-up: species or system rat
Source text: as §2, with “3). […]” for “3).”

[7] = tested on: brain hypoxic-ischemic injury; settings: reported in refs 22, 23; cited from earlier work
[8] = tested on: NMDA receptors; assay: In vitro GnRH secretion by hypothalamic explants induced by NMA; assay type: cell-based, rat; settings: 10^−6 M; explants of 50-day-old male rats; FIG. 8
Description: as §1, with “At 25 and 50 days, veratridine was used repeatedly at 37.5-min intervals. At 15 days, veratridine was used at 52.5-min intervals, i.e. beyond the period of refractoriness caused by the inhibitory autofeedback of GnRH(11).” left out
as §3

[9] = in vitro, explants of 50-day-old rats, FIG. 7

Molecule: insulin: bovine insulin
effect on veratridine-induced secretion of GnRH [1, 9]: no effects

concentrations displacing the binding of the tracer [2]: 10^−6 to 10^−8
Molecule: N[C@@H](CCC(=O)O)C(=O)O [Glutamate]

Molecule: D-TRP^6-PRO^9-N-Ethylamide GnRH [(1-9)GnRHa, reference compound]
effect on veratridine-induced secretion of GnRH ([1]; FIG. 6): can be inhibited
IC50 ([1]; FIG. 6, read-out: IC50, inhibition of veratridine-induced GnRH secretion): 0.2 nM

Molecule: (1-37)GRF: human GRF subproduct, minor physiological form with a C-terminal glutamic acid (YADAIFTNSYRKVLGQLSARKLLQDIMSRQQGESNQE; Somatoliberin; UniProt P01286 32-68, looked up, fragment)
effect on veratridine-induced secretion of GnRH [1, 9]: dose-related inhibition

Molecule: CNC(CC(=O)O)C(=O)O (racemic) [NMA, N-methyl-D, L-aspartate, reference compound]
GnRH secretion induced by veratridine 5.10^−5 M ([3]; +NMA 5.10^−4 M alone, 50-day-old male rats, mean, n = 6): 98 % of controls

Molecule: O=C1N=c2cc([N+](=O)[O-])c([N+](=O)[O-])cc2=NC1=O [DNQX, 6,7-dinitro-quinoxaline-2,3-dione]
effect on kainate-induced secretion of GnRH [4]: inhibitory effects

Molecule: (1-29)GRF: human GRF subproduct retaining GH-releasing activity (YADAIFTNSYRKVLGQLSARKLLQDIMSR; Somatoliberin; UniProt P01286 32-60, looked up, fragment) [reference compound]
effect on veratridine-induced secretion of GnRH [1, 9]: does not affect

Molecule: IGF-I: recombinant hIGF-I (Kabi-Pharmacia)
displacement of tritiated glutamate binding [2]: act as competitors of glutamate binding
period for which spontaneous pulsatile secretion of GnRH is abolished [5]: ~2 h
effect on GnRH secretion from explants of 30-day-old female rats ([3]; data not shown): inhibited
period of suppression of the GnRH secretory response to veratridine ([6]; s.c. 0.05-0.2 mg/kg, directly related to dose, 50-day-old animals): 47.5 to 107.5 min
ex vivo effectiveness on veratridine-induced GnRH secretion at 15 and 50 days ([6]; s.c. injection, higher doses at 15 days, FIG. 3): only effective at 50 days
period of marked inhibition of in-vitro GnRH secretion in response to veratridine ([6]; single s.c. injection of 0.5 mg/kg, 50-day-old animals): up to 167.5 min
protection against brain hypoxic-ischemic injury [7]: can protect
effect on GnRH secretion at very high concentrations ([1]; 10^−4 and 10^−3 M, explants at 15 days, FIG. 4): inhibition of GnRH secretion
effect on veratridine-induced secretion of GnRH ([1]; in vitro, explants at 25 and 50 days): dose-related inhibition
effect on veratridine-induced secretion of GnRH ([1]; in vitro, explants at 15 days): not affected
inhibitory effect on GnRH secretion in the presence of peptidase inhibitors ([1]; three different peptidase inhibitors, FIG. 5): can be prevented

Molecule: NC(CCCP(=O)(O)O)C(=O)O (racemic) [AP-5, DL-2-amino-5-phosphonovaleric acid, reference compound]
effect on secretion of GnRH induced by NMA [8]: inhibitory effects
effect on veratridine-induced secretion of GnRH ([1]; in vitro, explants at 15, 25 and 50 days): dose-related suppression

Molecule: (1-5)GnRH: peptide with a N-terminal glutamic acid which results from the degradation of GnRH in the hypothalamus (QHWSY; ends and bridges not checked; UniProt P01148 24-28, looked up, fragment)
displacement of tritiated glutamate binding [2]: act as competitors of glutamate binding
effect on veratridine-induced secretion of GnRH ([1]; FIG. 6): inhibited

Molecule: (1-43)GRF: full (1-43) sequence of rat Growth Hormone-Releasing Factor (HADAIFTSSYRRILGQLYARKLLHEIMNRQQGERNQEQRSRFN; Somatoliberin; UniProt P09916 31-73, looked up) [reference compound]
effect on veratridine-induced secretion of GnRH [1, 9]: dose-related inhibition

B1: Proinsulin: bovine Proinsulin (protein, UniProt P01317 25-105, looked up)
pro-form: FVNQHLCGSHLVEALYLVCGERGFFYTPKARREVEGPQVGALELAGGPGAGGLEGPPQKRGIVEQCCASVCSLYQLENYCN
modifications: pro-form
effect on veratridine-induced secretion of GnRH [1, 9]: dose-related suppression
